Data from patent publication US10077269B2, “Imidazopyridazine compounds” (Pfizer Inc., priority 2014, dated 2018).

Target: Human PDE4D FL (Homo sapiens (Human), UniProt Q08499)
Test: PDE4D3 Scintillation Proximity Assay (SPA), inhibition of enzyme activity
Assay type: biochemical
Conditions: geometric mean of 2-9 determinations unless otherwise indicated; 1 μM cAMP, 30 min at 25° C.

Chain of Human PDE4D FL (Q08499 186-808): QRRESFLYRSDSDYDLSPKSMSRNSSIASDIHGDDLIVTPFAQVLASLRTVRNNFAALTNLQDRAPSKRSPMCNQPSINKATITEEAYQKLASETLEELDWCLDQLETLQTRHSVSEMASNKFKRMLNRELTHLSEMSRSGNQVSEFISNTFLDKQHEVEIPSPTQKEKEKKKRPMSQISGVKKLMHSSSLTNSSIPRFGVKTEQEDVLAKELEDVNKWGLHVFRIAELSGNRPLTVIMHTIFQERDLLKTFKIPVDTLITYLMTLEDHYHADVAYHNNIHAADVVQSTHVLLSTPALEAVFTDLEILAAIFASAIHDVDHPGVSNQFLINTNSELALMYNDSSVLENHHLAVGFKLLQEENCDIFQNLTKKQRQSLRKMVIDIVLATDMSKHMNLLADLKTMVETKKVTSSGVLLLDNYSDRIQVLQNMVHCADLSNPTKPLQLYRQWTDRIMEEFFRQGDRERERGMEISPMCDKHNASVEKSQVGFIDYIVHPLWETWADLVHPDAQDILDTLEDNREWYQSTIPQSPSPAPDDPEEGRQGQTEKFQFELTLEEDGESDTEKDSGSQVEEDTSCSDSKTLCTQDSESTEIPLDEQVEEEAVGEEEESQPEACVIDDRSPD

Row | IC50 | Structure (SMILES)
1 | > 12.2 µM | O=C(NC1CC1)c1nc2cccnn2c1-c1ccnc(C(F)(F)F)c1 [Example 42, N-cyclopropyl-3-[2-(trifluoromethyl)pyridin-4-yl]imidazo[1,2-b]pyridazine-2-carboxamide]
2 | > 26.2 µM | COC1CN(C(=O)c2nc3cccnn3c2-c2ccc(Cl)cc2)C1 [Example 31, [3-(4-chlorophenyl)imidazo[1,2-b]pyridazin-2-yl](3-methoxyazetidin-1-yl)methanone]
